Results published in patent US20210349099A1, “CANCER BIOMARKERS AND METHODS OF USE THEREOF” (X4 Pharmaceuticals, Inc., priority 2017, published 2021).

Test system: melanoma tumor gene signatures
Experiment: NanoString nCounter gene expression of FFPE melanoma biopsies
Format: in vivo, human
From the text: FFPE gene expression analysis: For each gene biomarker, RNA was extracted from FFPE slides using Qiagen's AllPrep kit (Cat. 80234) and analyzed using NanoString nCounter platform with the PanCancer Immune probe set. Raw counts were normalized using the geometric mean of 30 housekeeping genes and the normalized data from both panels were merged and analyzed with nSolver software (Version 4.0).
Interferon gene signature was based on Ayers et al (JCI 2017) and calculated in the following manner. For each patient (pt) sample, the geometric mean was calculated from the normalized counts for six genes (IFN-γ, CXCL9, CXCL10, HLA-DRA, IDO1, STAT1) and then the mean was Log 10-transformed to generate the Gene Expression score. […] Gene scores were calculated for each patient sample from the geometric mean of normalized counts for IFN-gamma, CXCL9, CXCL10, HLA-DRA, IDO1, and STAT1. The mean was Log 10-transformed to generate the Gene Expression score.
The tumor inflammatory signature (TIS) was calculated from 18 genes by taking the Log 10 of the geometric mean of the normalized counts across each gene set to generate a “Gene signature score”. See, e.g., Righi E, Kashiwagi S, Yuan J, et al. “CXCL12/CXCR4 Blockade Induces Multimodal Antitumor Effects That Prolong Survival in an Immunocompetent Mouse Model of Ovarian Cancer,” Cancer Res. 2011; 71(16):5522-5534.
Raw counts were normalized using the geometric mean of housekeeping genes. The Interferon-gamma gene signature score was assessed by a procedure essentially as described in Ayers et al. (2017) J. Clin. Invest. 127:2930-2940.
To perform the CTL signature measurement, RNA was extracted from FFPE slides using Qiagen's AllPrep kit and analyzed using the NanoString nCounter platform with the PanCancer Immune probe set. Raw counts were normalized using the geometric mean of housekeeping genes. NanoString nCounter validation is described at Malkov et al. (2009) BMC Research Notes; 2:80; accessed Nov. 2, 2017 at https://bmcresnotes.biomedcentral.com/articles/10.1186/1756-0500-2-80; Waggott et al. (2012) Bioinformatics 28:1546-1548; see also nCounter® Analysis System User Manual (July 2015), published by NanoString Technologies®, Inc., accessed Nov. 2, 2017, at https://www.nanostring.com/application/files/7114/8942/6665/MAN-C0035-05_nCounter Analysis_System_GEN2.pdf.
For each gene biomarker, RNA was extracted from FFPE slides using Qiagen's AllPrep kit (Cat. 80234) and analyzed using NanoString nCounter platform with the PanCancer Immune probe set. Raw counts were normalized using the geometric mean of housekeeping genes, as described above.
Antigen Presentation/Processing Gene Signature was calculated by taking the geometric mean of the normalized counts for eighteen (18) genes (B2M, CD74, CTSL, CTSS, HLA-DMA, HLA-DMB, HLA-DOB, HLA-DPA1, HLA-DPB1, HLA-DQA1, HLA-DQB1, HLA-DRA, HLA-DRB1, HLA-DRB3, PSMB8, PSMB9, TAP1, and TAP2) and then Log 10-transforming the mean to generate the Gene Expression Score.
Tumor Inflammation Signature was calculated by taking the geometric mean of the normalized counts for eighteen (18) genes (CCL5, CD27, CD274, CD276, CD8A, CMKLR1, CXCL9, CXCR6, HLA-DQA1, HLA-DRB1, HLA-E, IDO1, LAG3, NKG7, PDCD1LG2, PSMB10, STAT1, and TIGIT) and then Log 10-transforming the mean to generate the Gene Expression Score.

[1] = pre- vs post-dosing, five patients
[2] = pre- vs post-dosing, patients 2, 3, 5, 8, and 9

NCCCCN(Cc1nc2ccccc2[nH]1)[C@H]1CCCc2cccnc21 [X4P-001]
CD8A expression (NanoString nCounter): increased | CD8B expression (NanoString nCounter): increased | granzyme B expression (NanoString nCounter): increased | Tumor Inflammation Signature Gene Expression Score, Post-X4P-001 Score (Patient 2, Pre-Dose Score 2.123, Log 10 of geometric mean of 18 genes): 2.225 | Antigen Presentation/Processing Gene Expression Score, Post-X4P-001 Score (Patient 2, Pre-Dose Score 2.94, Log 10 of geometric mean of 18 genes): 2.986 | Tumor Inflammation Signature Gene Expression Score, Post-X4P-001 Score (Patient 3, Pre-Dose Score 2.647): 2.798 | Antigen Presentation/Processing Gene Expression Score, Post-X4P-001 Score (Patient 3, Pre-Dose Score 3.139): 3.324 | Tumor Inflammation Signature Gene Expression Score, Post-X4P-001 Score (Patient 5, Pre-Dose Score 2.871): 3.257 | Antigen Presentation/Processing Gene Expression Score, Post-X4P-001 Score (Patient 5, Pre-Dose Score 3.519): 3.806 | Tumor Inflammation Signature Gene Expression Score, Post-X4P-001 Score (Patient 8, Pre-Dose Score 2.508): 2.834 | Antigen Presentation/Processing Gene Expression Score, Post-X4P-001 Score (Patient 8, Pre-Dose Score 3.134): 3.518 | Tumor Inflammation Signature Gene Expression Score, Post-X4P-001 Score (Patient 9, Pre-Dose Score 2.233): 2.597 | Antigen Presentation/Processing Gene Expression Score, Post-X4P-001 Score (Patient 9, Pre-Dose Score 3.082): 3.495 | cytotoxic T lymphocyte (CTL) gene signature gene expression score [1]: increased for each one of the five patients | interferon gamma (IFN-γ) gene signature Gene Expression Score [1]: increased for each one of the five patients | Antigen Presentation/Processing Gene Expression Score, change [2]: increased for each patient | Tumor Inflammation Signature Gene Expression Score, change [2]: increased for each patient
